Values quoted from earlier work as cited in US20250381202A1, “PRODRUG KIT FOR MULTI-PRONGED CHEMOTHERAPY” (priority 2022, published 2025).
Read-outs that look alike come from different tables or passages of the source.

Conditions: in vivo tumor model, area under the curve until the drug concentration reaches zero

For COc1cccc2c1C(=O)c1c(O)c3c(c(O)c1C2=O)C[C@@](O)(C(=O)CO)C[C@@H]3O[C@H]1C[C@H](N)[C@H](O)[C@H](C)O1 [doxorubicin, Doxorubicin], the AUC0-t (In blood) is given as 80.9 µg·min/mL and the AUC0-t (Tumor Mean PK) is given as 33.4 µg·min/mL.
